Reference: ChEMBL document CHEMBL3885861, “Open TG-GATES”

Organism: Rattus norvegicus
Assay: Open TG-GATES - Regimen: Single
Type: toxicity, organism-based, Sprague-Dawley
Parameters: regimen Single, gender Male, age 6 weeks
Details: in vivo, po, route gavage; for Bas / Eos / Ht / Lym / MCH / Mono / Neu / RBC / Ret: tissue Blood; for KIDNEY_L / KIDNEY_R / KIDNEY_TOTAL: tissue Kidney; for LIVER: tissue Liver; for ALP / ALT / AST / CRE / Ca / DBIL / IP / K / LDH / Na / PL / RALB / TBIL / TC / TG / TP / gamma-GTP: tissue Plasma
[1] = 600 mg/kg, 3 h, dose level Middle
[2] = 600 mg/kg, 6 h, dose level Middle
[3] = 600 mg/kg, 9 h, dose level Middle
[4] = 600 mg/kg, 24 h, dose level Middle
[5] = 2000 mg/kg, 3 h, dose level High
[6] = 2000 mg/kg, 6 h, dose level High
[7] = 2000 mg/kg, 9 h, dose level High
[8] = 2000 mg/kg, 24 h, dose level High

`COc1cc2ncnc(Nc3ccc(F)c(Cl)c3)c2cc1OCCCN1CCOCC1` [GEFITINIB] was tested, and the Bas [1] was 0%, the Eos [1] was 0.6% and the Ht [1] was 37%. The Lym [1] was 75%, the MCH [1] was 21.1 pg and the Mono [1] was 2.4%. The Neu [1] was 21%, the RBC [1] was 588 x10_4/ul and the Ret [1] was 9.3%. The KIDNEY_L [1] was 1 g, the KIDNEY_R [1] was 1 g and the KIDNEY_TOTAL [1] was 1.9 g. For the same molecule, the LIVER [1] was 9.7 g, the ALP [1] was 1687 IU/L and the ALT [1] was 58.6 IU/L. The AST [1] was 80.8 IU/L, the CRE [1] was 0.1 mg/dL and the Ca [1] was 9.7 mg/dL. For the same molecule, the DBIL [1] was 0.016 mg/dL, the IP [1] was 8.6 mg/dL and the K [1] was 3.9 meq/L. For the same molecule, the LDH [1] was 191.4 IU/L, the Na [1] was 141.8 meq/L and the PL [1] was 141 mg/dL. It also gave an RALB [1] of 3.9 g/dL, a TBIL [1] of 0.074 mg/dL and a TC [1] of 87.2 mg/dL. For the same molecule, the TG [1] was 49.7 mg/dL, the TP [1] was 5.4 g/dL and the gamma-GTP [1] was 1 IU/L. The TERMINAL_BW [2] was 210.3 g, the Bas [2] was 0% and the Eos [2] was 0.6%. It also gave a Ht [2] of 36.6%, a Lym [2] of 80.2% and an MCH [2] of 21.1 pg. It also gave a Mono [2] of 2.6%, a Neu [2] of 15.6% and an RBC [2] of 582 x10_4/ul. It also gave a Ret [2] of 8.9%, a KIDNEY_L [2] of 0.9 g and a KIDNEY_R [2] of 0.9 g. It also gave a KIDNEY_TOTAL [2] of 1.9 g, an LIVER [2] of 9.1 g and an ALP [2] of 1267.2 IU/L. For the same molecule, the ALT [2] was 59.4 IU/L, the AST [2] was 82 IU/L and the CRE [2] was 0.1 mg/dL. The Ca [2] was 9.8 mg/dL, the DBIL [2] was 0.016 mg/dL and the IP [2] was 8.8 mg/dL. For the same molecule, the K [2] was 4 meq/L, the LDH [2] was 200.4 IU/L and the Na [2] was 141.3 meq/L. The PL [2] was 152.8 mg/dL, the RALB [2] was 3.9 g/dL and the TBIL [2] was 0.078 mg/dL. The TC [2] was 96 mg/dL, the TG [2] was 42.8 mg/dL and the TP [2] was 5.4 g/dL. It also gave a gamma-GTP [2] of 1 IU/L, a TERMINAL_BW [3] of 212.8 g and a Bas [3] of 0%. It also gave an Eos [3] of 0.8%, a Ht [3] of 37% and a Lym [3] of 77.6%. The MCH [3] was 21.1 pg, the Mono [3] was 3% and the Neu [3] was 18%. The RBC [3] was 587 x10_4/ul, the Ret [3] was 9.2% and the KIDNEY_L [3] was 0.9 g. It also gave a KIDNEY_R [3] of 1 g, a KIDNEY_TOTAL [3] of 1.9 g and an LIVER [3] of 8.9 g. The ALP [3] was 1338.6 IU/L, the ALT [3] was 51 IU/L and the AST [3] was 71.2 IU/L. For the same molecule, the CRE [3] was 0.2 mg/dL, the Ca [3] was 9.9 mg/dL and the DBIL [3] was 0.016 mg/dL. It also gave an IP [3] of 9.1 mg/dL, a K [3] of 4.2 meq/L and an LDH [3] of 160.6 IU/L. For the same molecule, the Na [3] was 143.1 meq/L, the PL [3] was 153 mg/dL and the RALB [3] was 3.8 g/dL. For the same molecule, the TBIL [3] was 0.076 mg/dL, the TC [3] was 96 mg/dL and the TG [3] was 46.7 mg/dL. It also gave a TP [3] of 5.4 g/dL, a gamma-GTP [3] of 0.9 IU/L and a TERMINAL_BW [4] of 211.6 g. The Bas [4] was 0%, the Eos [4] was 0.8% and the Ht [4] was 40%. It also gave a Lym [4] of 66.2%, an MCH [4] of 20.7 pg and a Mono [4] of 3.6%. The Neu [4] was 29%, the RBC [4] was 625.6 x10_4/ul and the Ret [4] was 7.6%. For the same molecule, the KIDNEY_L [4] was 0.9 g, the KIDNEY_R [4] was 1 g and the KIDNEY_TOTAL [4] was 1.9 g. It also gave an LIVER [4] of 8.9 g, an ALP [4] of 1287.2 IU/L and an ALT [4] of 42 IU/L. For the same molecule, the AST [4] was 73.8 IU/L, the CRE [4] was 0.2 mg/dL and the DBIL [4] was 0.008 mg/dL. For the same molecule, the IP [4] was 8.9 mg/dL, the K [4] was 4.3 meq/L and the LDH [4] was 178.6 IU/L. It also gave a Na [4] of 142.8 meq/L, a PL [4] of 186.2 mg/dL and an RALB [4] of 4 g/dL. It also gave a TBIL [4] of 0.058 mg/dL, a TC [4] of 126.4 mg/dL and a TG [4] of 65 mg/dL. The TP [4] was 5.5 g/dL, the gamma-GTP [4] was 1.2 IU/L and the TERMINAL_BW [5] was 214.3 g. It also gave a Bas [5] of 0%, an Eos [5] of 0.6% and a Ht [5] of 37.2%. The Lym [5] was 68%, the MCH [5] was 21.3 pg and the Mono [5] was 3%. The Neu [5] was 27.6%, the RBC [5] was 591 x10_4/ul and the Ret [5] was 9.4%. The KIDNEY_L [5] was 0.9 g, the KIDNEY_R [5] was 0.9 g and the KIDNEY_TOTAL [5] was 1.8 g. It also gave an LIVER [5] of 9.4 g, an ALP [5] of 1590.6 IU/L and an ALT [5] of 71 IU/L. It also gave an AST [5] of 87.4 IU/L, a CRE [5] of 0.1 mg/dL and a Ca [5] of 9.9 mg/dL. The DBIL [5] was 0.012 mg/dL, the IP [5] was 9.1 mg/dL and the K [5] was 3.9 meq/L. The LDH [5] was 236 IU/L, the Na [5] was 141.9 meq/L and the PL [5] was 145.4 mg/dL. The RALB [5] was 3.9 g/dL, the TBIL [5] was 0.072 mg/dL and the TC [5] was 91.2 mg/dL. The TG [5] was 56.5 mg/dL, the TP [5] was 5.4 g/dL and the gamma-GTP [5] was 0.9 IU/L. The TERMINAL_BW [6] was 213.7 g, the Bas [6] was 0% and the Eos [6] was 0.8%. The Ht [6] was 37.3%, the Lym [6] was 76.4% and the MCH [6] was 21.3 pg. The Mono [6] was 3.2%, the RBC [6] was 589.2 x10_4/ul and the Ret [6] was 9%. It also gave a KIDNEY_L [6] of 0.9 g, a KIDNEY_R [6] of 1 g and a KIDNEY_TOTAL [6] of 1.9 g. For the same molecule, the LIVER [6] was 9.1 g, the ALP [6] was 1266.2 IU/L and the ALT [6] was 56.2 IU/L. The AST [6] was 78.6 IU/L, the CRE [6] was 0.2 mg/dL and the Ca [6] was 9.6 mg/dL. It also gave a DBIL [6] of 0.024 mg/dL, an IP [6] of 9.1 mg/dL and a K [6] of 3.9 meq/L. It also gave an LDH [6] of 184.6 IU/L, a Na [6] of 140.7 meq/L and a PL [6] of 150.8 mg/dL. The RALB [6] was 3.8 g/dL, the TBIL [6] was 0.092 mg/dL and the TC [6] was 99.6 mg/dL. The TG [6] was 30 mg/dL, the TP [6] was 5.4 g/dL and the gamma-GTP [6] was 0.9 IU/L. For the same molecule, the TERMINAL_BW [7] was 212.3 g, the Bas [7] was 0% and the Eos [7] was 0.2%. For the same molecule, the Ht [7] was 37.4%, the Lym [7] was 76.2% and the MCH [7] was 21.1 pg. For the same molecule, the Mono [7] was 2.4%, the Neu [7] was 20.4% and the RBC [7] was 592.6 x10_4/ul. It also gave a Ret [7] of 9.3%, a KIDNEY_L [7] of 0.9 g and a KIDNEY_R [7] of 1 g. The KIDNEY_TOTAL [7] was 1.9 g, the LIVER [7] was 8.6 g and the ALP [7] was 1162 IU/L. For the same molecule, the ALT [7] was 56.4 IU/L, the AST [7] was 77.4 IU/L and the CRE [7] was 0.1 mg/dL. The Ca [7] was 9.6 mg/dL, the DBIL [7] was 0.028 mg/dL and the IP [7] was 8.7 mg/dL. For the same molecule, the K [7] was 3.8 meq/L, the LDH [7] was 210.6 IU/L and the Na [7] was 142.6 meq/L. It also gave a PL [7] of 148.2 mg/dL, an RALB [7] of 3.8 g/dL and a TBIL [7] of 0.1 mg/dL. It also gave a TC [7] of 98 mg/dL, a TG [7] of 29 mg/dL and a TP [7] of 5.4 g/dL. It also gave a gamma-GTP [7] of 0.9 IU/L, a TERMINAL_BW [8] of 204 g and a Bas [8] of 0%. It also gave an Eos [8] of 0.5%, a Ht [8] of 40.5% and a Lym [8] of 59.8%. The MCH [8] was 21 pg, the Mono [8] was 3.5% and the Neu [8] was 35.8%. For the same molecule, the RBC [8] was 632 x10_4/ul, the Ret [8] was 8.1% and the KIDNEY_L [8] was 0.9 g. The KIDNEY_R [8] was 0.9 g, the KIDNEY_TOTAL [8] was 1.9 g and the LIVER [8] was 8.6 g. For the same molecule, the ALP [8] was 1061.5 IU/L, the ALT [8] was 76.8 IU/L and the AST [8] was 126 IU/L. It also gave a CRE [8] of 0.2 mg/dL, a DBIL [8] of 0.03 mg/dL and an IP [8] of 8.4 mg/dL. The K [8] was 3.5 meq/L, the LDH [8] was 272 IU/L and the Na [8] was 143.2 meq/L. The PL [8] was 144.8 mg/dL, the RALB [8] was 3.9 g/dL and the TBIL [8] was 0.1 mg/dL. It also gave a TC [8] of 111.2 mg/dL, a TG [8] of 39.6 mg/dL and a TP [8] of 5.4 g/dL. For the same molecule, the gamma-GTP [8] was 1.4 IU/L.
